Test results taken from BindingDB's records for patent US20250313563 (The Broad Institute, 2025).
pIC50: −log10 of the molar value. “And” between values parts separate entries of the source, which are not always exact repeats. Equal values may be shown once.

Experiments:
[1] = target: Glycogen synthase kinase-3 alpha (Homo sapiens, UniProt P49840); test: TR-FRET Assay
In short: (§1)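 TR-FRET readout: streptavidin-d2 (40 nM in added detection mix) plus Tb-anti-pSer641 Ab (2 nM in mix). Steps were 30 min compound preincubation, kinase reaction, then EDTA stop.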

[2] = target: Glycogen synthase kinase-3 beta (Homo sapiens, UniProt P49841); test: TR-FRET Assay
In short: as §1

Chain of Glycogen synthase kinase-3 beta (P49841 whole entry): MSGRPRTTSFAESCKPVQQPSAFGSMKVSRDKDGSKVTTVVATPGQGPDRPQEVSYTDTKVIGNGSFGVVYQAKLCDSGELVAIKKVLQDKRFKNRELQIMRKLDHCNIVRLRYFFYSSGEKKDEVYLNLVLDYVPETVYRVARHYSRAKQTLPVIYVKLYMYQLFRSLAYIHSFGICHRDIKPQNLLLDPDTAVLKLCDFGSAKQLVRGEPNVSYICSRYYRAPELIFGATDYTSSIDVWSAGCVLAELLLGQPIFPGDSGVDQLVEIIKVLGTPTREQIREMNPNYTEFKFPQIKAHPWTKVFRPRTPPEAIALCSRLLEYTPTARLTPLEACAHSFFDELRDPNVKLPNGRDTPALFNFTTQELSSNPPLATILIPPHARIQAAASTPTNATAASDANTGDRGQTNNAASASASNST
Chain of Glycogen synthase kinase-3 alpha (P49840 whole entry): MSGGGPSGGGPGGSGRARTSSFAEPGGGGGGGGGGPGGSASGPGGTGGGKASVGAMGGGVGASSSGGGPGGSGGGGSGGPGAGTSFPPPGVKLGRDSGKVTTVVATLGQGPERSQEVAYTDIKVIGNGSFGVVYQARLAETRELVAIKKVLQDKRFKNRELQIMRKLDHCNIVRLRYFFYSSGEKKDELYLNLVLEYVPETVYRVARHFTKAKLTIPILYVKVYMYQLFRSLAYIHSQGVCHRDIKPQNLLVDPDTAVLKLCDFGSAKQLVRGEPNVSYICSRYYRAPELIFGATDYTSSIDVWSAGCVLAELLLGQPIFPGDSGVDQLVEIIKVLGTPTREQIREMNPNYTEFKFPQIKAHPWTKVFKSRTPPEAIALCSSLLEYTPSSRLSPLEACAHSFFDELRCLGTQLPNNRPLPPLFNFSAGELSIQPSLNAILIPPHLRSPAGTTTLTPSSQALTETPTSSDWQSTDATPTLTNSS

| Structure (SMILES) | pIC50 [1] | pIC50 [2] |
| --- | --- | --- |
| CC[C@@]1(c2cccc(C(F)F)c2)C2=CN=NC2NC2=C1C(=O)NC(C)(C)C2 (some centres undefined) [US20250313563, Compound 949006] | > 7.00 and 6.00 to 7.00 | 6.00 to 7.00 and < 5.30 |
| CC[C@@]1(c2cccc(C(F)(F)F)c2)C2=C(CC(C)(C)CC2=O)NC2N=NC(C)=C21 (some centres undefined) [US20250313563, Compound 810367] | > 7.00 | > 7.00 |
| CC[C@@]1(c2cccc(-c3ccnc(OC)c3Cl)c2)C2=CN=NC2NC2=C1C(=O)NC(C)(C)C2 (some centres undefined) [US20250313563, Compound 952754] | > 7.00 | 6.00 to 7.00 |
| CCC1(c2cccc(-c3c(C)nn(C)c3C)c2)C2=CN=NC2NC2=C1C(=O)NC(C)(C)C2 (centres undefined) [US20250313563, Compound 945462] | > 7.00 | > 7.00 |
| CC[C@]1(c2cccc(Oc3ncccn3)c2)C2=C(CC(C)(C)NC2=O)NC2N=NC(F)=C21 (some centres undefined) [US20250313563, Compound 951949] | > 7.00 and 6.00 to 7.00 | 6.00 to 7.00 and < 5.30 |
| CC[C@@]1(c2cccc(C(F)(F)F)c2)C2=C(N=NC2)NC2=C1C(=O)NC2 [US20250313563, Compound 917158] | 6.00 to 7.00 | 5.30 to 6.00 |
| CC[C@]1(c2cccc(-c3ccncc3)c2)C2=CN=NC2NC2=C1C(=O)CC(C)(C)C2 (some centres undefined) [US20250313563, Compound 801412] | < 5.30 | < 5.30 |
| CC[C@@]1(c2cccc(-c3cc[n+]([O-])cc3[S+](C)[O-])c2)C2=CN=NC2NC2=C1C(=O)CC(C)(C)C2 (some centres undefined) [US20250313563, Compound 947570] | 6.00 to 7.00 | 5.30 to 6.00 |
| Cc1cc(S(=O)(=O)N2CCC3(CC2)C2=C(N=NC2)NC2=C3C(=O)CC(C)(C)C2)n(C)n1 [US20250313563, Compound 947608] | > 7.00 | > 7.00 |
| CCC1(c2cccc(N(C)C(=O)C3CCOCC3)c2)C2=CN=NC2NC2=C1C(=O)CC(C)(C)C2 (centres undefined) [US20250313563, Compound 912070] | > 7.00 | 6.00 to 7.00 |
| CC1(C)CC(=O)C2=C(C1)NC1N=NC=C1[C@@]21CCCc2c(-c3ccncc3)cccc21 (some centres undefined) [US20250313563, Compound 945547] | 5.30 to 6.00 | < 5.30 |
| CCC1(c2cccc(-c3cnn(C)c3)c2)C2=C(CC(C)(C)CC2=O)NC2N=NC(C)=C21 (centres undefined) [US20250313563, Compound 884000] | > 7.00 | 6.00 to 7.00 |
| CCC1(c2cccc(-c3cc(C)ncc3F)c2)C2=C(CC(C)(C)NC2=O)NC2N=NC(C(F)(F)F)=C21 (centres undefined) [US20250313563, Compound 948762] | > 7.00 | > 7.00 |
| CCC1(c2cccc(C(F)(F)F)c2)C2=CN=NC2NC2=C1C(=O)N(c1ccc(C)cc1)CC2 (centres undefined) [US20250313563, Compound 948241] | > 7.00 | 6.00 to 7.00 |
| CC[C@]1(c2cccc(-c3ccnc(CCO)c3)c2)C2=CN=NC2NC2=C1C(=O)CC(C)(C)C2 (some centres undefined) [US20250313563, Compound 947816] | 5.30 to 6.00 | < 5.30 |
| CC1(C)CC(=O)C2=C(C1)NC1=C(CN=N1)C21CN(c2cccnc2)C1 [US20250313563, Compound 947813] | 5.30 to 6.00 | 5.30 to 6.00 |
| CC[C@]1(c2cccc(C(F)(F)F)c2)C2=C(N=NC2)NC2=C1C(=O)NC2 [US20250313563, Compound 917157] | < 5.30 | < 5.30 |
| CC[C@@]1(c2cccc(S(=O)(=O)C(C)C)c2)C2=C(CC(C)(C)NC2=O)NC2N=NC(C(F)(F)F)=C21 (some centres undefined) [US20250313563, Compound 948423] | > 7.00 | 6.00 to 7.00 |
| CCC1(c2cccc(-c3cc(C)ncc3C)c2)C2=CN=NC2NC2=C1C(=O)CC(C)(C)C2 (centres undefined) [US20250313563, Compound 913346] | > 7.00 | 6.00 to 7.00 |
| CC[C@@]1(c2cccc(-c3ccnc(C)c3)c2)C2=C(CC(C)(C)NC2=O)NC2N=NC(F)=C21 (some centres undefined) [US20250313563, Compound 949012] | > 7.00 | 6.00 to 7.00 |
| CC[C@@]1(c2cccc(-c3cnn4c3OCCC4)c2)C2=CN=NC2NC2=C1C(=O)NC(C)(C)C2 (some centres undefined) [US20250313563, Compound 952019] | > 7.00 | 6.00 to 7.00 |
| CC1(C)CC2=C(C(=O)[C@H]1F)C1(CCOCC1)C1=C(N=NC1)N2 [US20250313563, Compound 883836] | 6.00 to 7.00 | 5.30 to 6.00 |
| CC[C@@]1(c2cccc(C3=C4CC=C(F)C=C4N=CC3)c2)C2=CN=NC2NC2=C1C(=O)NC(C)(C)C2 (some centres undefined) [US20250313563, Compound 948528] | > 7.00 | 6.00 to 7.00 |
| CCCc1cc(-c2cccc(C3(CC)C4=CN=NC4NC4=C3C(=O)CC(C)(C)C4)c2)ccn1 (centres undefined) [US20250313563, Compound 945467] | > 7.00 | 6.00 to 7.00 |
| CC[C@]1(c2cccc(C(F)(F)F)c2)C2=CN=NC2NC2=C1C(=O)N(c1cncnc1)CC2 (some centres undefined) [US20250313563, Compound 948379] | 6.00 to 7.00 | 6.00 to 7.00 |
| Cn1nccc1-c1cccc2c1CCC[C@]21C2=CN=NC2NC2=C1C(=O)CC(C)(C)C2 (some centres undefined) [US20250313563, Compound 945552] | 6.00 to 7.00 | < 5.30 |

The remaining lines, values ahead:

| pIC50 [1] | pIC50 [2] | Structure (SMILES) |
| --- | --- | --- |
| < 5.30 | < 5.30 | CC[C@@]1(c2cccc(-c3c(C)cnc4c(C)cccc34)c2)C2=CN=NC2NC2=C1C(=O)NC(C)(C)C2 (some centres undefined) [US20250313563, Compound 952760] |
| 6.00 to 7.00 | 6.00 to 7.00 | C[C@@H]1CC[C@]2(C1)C1=C(N=NC1)NC1=C2C(=O)CC(C)(C)C1 [US20250313563, Compound 883841] |
| > 7.00 | > 7.00 | C[C@H]1C[C@@H]2C[C@@]3(C[C@@H]2C1)C1=CN=NC1NC1=C3C(=O)CC(C)(C)C1 (some centres undefined) [US20250313563, Compound 943896] |
| > 7.00 | 6.00 to 7.00 | CC[C@]1(c2cccc(C3=C4CC=C(OC)C=C4N=CC3)c2)C2=CN=NC2NC2=C1C(=O)NC(C)(C)C2 (some centres undefined) [US20250313563, Compound 948661] |
| > 7.00 | 6.00 to 7.00 | CC[C@@]1(c2cccc(N(C)c3cccc(C)n3)c2)C2=CN=NC2NC2=C1C(=O)CC(C)(C)C2 (some centres undefined) [US20250313563, Compound 932664] |
| > 7.00 and 6.00 to 7.00 | > 7.00 and 6.00 to 7.00 | CC1(C)CC(=O)C2=C(C1)NC1=C(CN=N1)C21CCN(S(=O)(=O)c2cc(F)ccc2F)CC1 [US20250313563, Compound 948121] |
| 6.00 to 7.00 | 6.00 to 7.00 | CCC1(c2cc(N(C)C(C)=O)ccc2F)C2=CN=NC2NC2=C1C(=O)CC(C)(C)C2 (centres undefined) [US20250313563, Compound 913124] |
| < 5.30 | < 5.30 | CC[C@@]1(c2cccc(N(C)c3cccc(C)n3)c2)C2=CN=NC2NC2=C1C(=O)CC(C)(C)C2 (some centres undefined) [US20250313563, Compound 932656] |
| > 7.00 | 6.00 to 7.00 | CC1(C)CC(=O)C2=C(C1)NC1N=NC=C1C21CCCS(=O)(=O)CC1 (centres undefined) [US20250313563, Compound 927343] |
| > 7.00 | > 7.00 | CCC1(c2cccc(S(=O)(=O)CC3CC3)c2)C2=CN=NC2NC2=C1C(=O)CC(C)(C)C2 (centres undefined) [US20250313563, Compound 913257] |
| 6.00 to 7.00 | 5.30 to 6.00 | CC[C@@]1(c2cccc(C(F)(F)F)c2)C2=CN=NC2NC2=C1C(=O)C[C@H](C)C2 (some centres undefined) [US20250313563, Compound 810452] |
| < 5.30 | < 5.30 | CC[C@@]1(c2cccc(N3CCCC[C@H]3C)c2)C2=CN=NC2NC2=C1C(=O)CC(C)(C)C2 (some centres undefined) [US20250313563, Compound 917210] |
| > 7.00 | > 7.00 | CC[C@]1(c2cccc(-c3ccncc3C)c2)C2=C(CC(C)(C)NC2=O)NC2N=NC(C(F)(F)F)=C21 (some centres undefined) [US20250313563, Compound 947812] |
| > 7.00 | > 7.00 | CC[C@@]1(c2cccc(-c3ccnc4ccc(OC)cc34)c2)C2=CN=NC2NC2=C1C(=O)NC(C)(C)C2 (some centres undefined) [US20250313563, Compound 948527] |
| > 7.00 and 6.00 to 7.00 | > 7.00 and 5.30 to 6.00 | CC[C@@]1(c2cccc(-c3ccnnc3)c2)C2=CN=NC2NC2=C1C(=O)CC(C)(C)C2 (some centres undefined) [US20250313563, Compound 929454] |
| > 7.00 | 6.00 to 7.00 | CC[C@]1(c2ccccc2)C2=CN=NC2NC2=C1C(=O)CC1(CCC1)C2 (some centres undefined) [US20250313563, Compound 819573] |
| 6.00 to 7.00 | 5.30 to 6.00 | CCN(c1cccc(C2(CC)C3=CN=NC3NC3=C2C(=O)CC(C)(C)C3)c1)c1cccnc1C (centres undefined) [US20250313563, Compound 885367] |
| > 7.00 | 6.00 to 7.00 | CC[C@]1(c2cc(-c3cnn(C)c3)ccc2F)C2=CN=NC2NC2=C1C(=O)CC(C)(C)C2 (some centres undefined) [US20250313563, Compound 909220] |
| 6.00 to 7.00 | 5.30 to 6.00 | CC[C@]1(c2cccc(C(F)(F)F)c2)C2=CN=NC2NC2=C1C(=O)N(C)C(C)(C)C2 (some centres undefined) [US20250313563, Compound 826790] |
| 6.00 to 7.00 | 5.30 to 6.00 | CC[C@]1(c2cccc(C(F)(F)F)c2)C2=CN=NC2NC2=C1C(=O)NCC2 (some centres undefined) [US20250313563, Compound 912622] |
| > 7.00 | > 7.00 | CCC1(c2cccc(-c3cn(C)nc3C)c2)C2=CN=NC2NC2=C1C(=O)N(C)C(C)(C)C2 (centres undefined) [US20250313563, Compound 948304] |
| > 7.00 | > 7.00 and 5.30 to 6.00 | CC[C@@]1(c2cccc(-c3cn(C)nc3C)c2)C2=C(CC(C)(C)NC2=O)NC2N=NC(F)=C21 (some centres undefined) [US20250313563, Compound 949185] |
| 6.00 to 7.00 | 6.00 to 7.00 | C[C@@H]1C[C@]2(CCO1)C1=C(N=NC1)NC1=C2C(=O)CC(C)(C)C1 [US20250313563, Compound 924308] |
| > 7.00 | > 7.00 | Cc1ccc(S(=O)(=O)N2CCC3(CC2)C2=C(N=NC2)NC2=C3C(=O)CC(C)(C)C2)cn1 [US20250313563, Compound 947482] |
| > 7.00 | > 7.00 and 6.00 to 7.00 | COc1ccccc1S(=O)(=O)N1CCC2(CC1)C1=C(N=NC1)NC1=C2C(=O)CC(C)(C)C1 [US20250313563, Compound 893310] |
| < 5.30 | < 5.30 | CC[C@]1(c2cccc(N3CCCCC3)c2)C2=CN=NC2NC2=C1C(=O)CC(C)(C)C2 (some centres undefined) [US20250313563, Compound 810371] |
